In patent US7259161B2, “Compositions useful as inhibitors of JAK and other protein kinases” (Vertex Pharmaceuticals Incorporated, priority 2002, dated 2007) one finds Ki data, which are given here for 45 compounds.

The structures appear in SMILES notation. pKi: −log10 of the molar value.

What all share (format): biochemical
For assay [1], the target named is T1, JAK3 (Homo sapiens, UniProt P52333).
T1 sequence (P52333 1-1124): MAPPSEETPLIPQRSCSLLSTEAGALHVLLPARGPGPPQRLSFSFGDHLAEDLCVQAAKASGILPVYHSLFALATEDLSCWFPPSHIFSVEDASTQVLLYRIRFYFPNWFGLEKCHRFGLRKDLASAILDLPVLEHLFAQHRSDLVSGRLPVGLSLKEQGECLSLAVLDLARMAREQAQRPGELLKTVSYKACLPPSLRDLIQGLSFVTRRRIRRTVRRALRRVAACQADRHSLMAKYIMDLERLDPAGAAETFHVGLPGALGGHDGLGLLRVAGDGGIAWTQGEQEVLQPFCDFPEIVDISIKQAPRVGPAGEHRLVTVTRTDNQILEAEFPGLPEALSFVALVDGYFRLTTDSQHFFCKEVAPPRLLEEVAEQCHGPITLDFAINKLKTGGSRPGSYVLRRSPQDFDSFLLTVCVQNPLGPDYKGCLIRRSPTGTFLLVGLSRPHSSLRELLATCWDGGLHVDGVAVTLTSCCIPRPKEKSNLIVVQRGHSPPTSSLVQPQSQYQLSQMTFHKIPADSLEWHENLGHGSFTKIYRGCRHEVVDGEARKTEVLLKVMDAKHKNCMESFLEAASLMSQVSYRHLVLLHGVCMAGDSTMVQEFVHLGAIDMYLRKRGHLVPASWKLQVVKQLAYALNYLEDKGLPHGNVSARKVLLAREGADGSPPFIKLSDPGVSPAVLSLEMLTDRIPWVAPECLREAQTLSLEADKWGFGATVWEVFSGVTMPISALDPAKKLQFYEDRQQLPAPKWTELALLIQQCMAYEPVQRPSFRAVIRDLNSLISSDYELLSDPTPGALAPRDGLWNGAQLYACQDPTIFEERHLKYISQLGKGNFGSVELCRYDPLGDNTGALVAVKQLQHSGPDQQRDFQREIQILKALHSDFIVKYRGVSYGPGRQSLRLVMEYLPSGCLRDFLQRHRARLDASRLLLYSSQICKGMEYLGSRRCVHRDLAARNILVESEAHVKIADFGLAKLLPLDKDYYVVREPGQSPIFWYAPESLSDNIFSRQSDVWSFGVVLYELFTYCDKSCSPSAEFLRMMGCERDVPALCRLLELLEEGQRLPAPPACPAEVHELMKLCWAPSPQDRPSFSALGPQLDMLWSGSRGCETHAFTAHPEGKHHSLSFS
The experiment in a line: JAK3 inhibition assay. The settings on record: 2 μM ATP, ELISA read at 450 nm. The protocol:
Compounds were screened for their ability to inhibit JAK3 according to the method described by G. R. Brown, et al, Bioorg. Med. Chem. Lett. 2000, vol. 10, pp 575–579 in the following manner. Into Maxisorb plates, previously coated at 4° C. with Poly (Glu, Ala, Tyr) 6:3:1 then washed with phosphate buffered saline 0.05% and Tween (PBST), was added 2 μM ATP, 5 MM MgCl2, and a solution of compound in DMSO. The reaction was started with JAK enzyme and the plates incubated for 60 minutes at 30° C. The plates were then washed with PBST, 100 μL HRP-Conjugated 4G10 antibody was added, and the plate incubated for 90 minutes at 30° C. The plate was again washed with PBST, 100 μL TMB solution is added, and the plates were incubated for another 30 minutes at 30° C. Sulfuric acid (100 μL of 1M) was added to stop the reaction and the plate is read at 450 nm to obtain the optical densities for analysis to determine Ki values.
Background: An ELISA detects its analyte on a solid surface through an enzyme-linked reagent.

Assay [2] has as its target JNK3 (Homo sapiens, UniProt P53779). The experiment in a line: JNK3 inhibition assay (spectrophotometric coupled-enzyme assay). The settings on record: 10 μM ATP, 10 nM activated JNK3. The protocol: Compounds were assayed for the inhibition of JNK3 by a spectrophotometric coupled-enzyme assay. In this assay, a fixed concentration of activated JNK3 (10 nM) was incubated with various concentrations of a potential inhibitor dissolved in DMSO for 10 minutes at 30° C. in a buffer containing 0.1 M HEPES buffer, pH 7.5, containing 10 mM MgCl2, 2.5 mM phosphoenolpyruvate, 200 μM NADH, 150 μg/mL pyruvate kinase, 50 μg/mL lactate dehydrogenase, and 200 μM EGF receptor peptide. The EGF receptor peptide is a phosphoryl acceptor in the JNK3-catalyzed kinase reaction. The reaction was initiated by the addition of 10 μM ATP and the assay plate is inserted into the spectrophotometer's assay plate compartment that was maintained at 30° C. The decrease of absorbance at 340 nm was monitored as a function of time. The rate data as a function of inhibitor concentration was fitted to competitive inhibition kinetic model to determine the Ki.

The target of assay [3] is CDK-2/Cyclin A (Homo sapiens, UniProt P24941). The experiment in a line: CDK2 inhibition assay (coupled enzyme assay). The settings on record: 100 μM ATP, 25 nM CDK-2/Cyclin A. The protocol: Compounds were screened for their ability to inhibit CDK-2/Cyclin A using a standard coupled enzyme assay (Fox et al (1998) Protein Sci 7, 2249). Reactions were carried out in 100 mM HEPES pH 7.5, 10 mM MgCl2, 25 mM NaCl, 1 mM DTT and 1.5% DMSO. Final substrate concentrations in the assay were 100 μM ATP (Sigma chemicals) and 100 μM peptide (American Peptide, Sunnyvale, Calif.). Assays were carried out at 30° C. and 25 nM CDK-2/Cyclin A. Final concentrations of the components of the coupled enzyme system were 2.5 mM phosphoenolpyruvate, 350 μM NADH, 30 μg/ml pyruvate kinase and 10 μg/ml lactate dehydrogenase.
An assay stock buffer solution was prepared containing all of the reagents listed above, with the exception of CDK-2/Cyclin A, DTT and the test compound of interest. 56 μl of the test reaction was placed in a 384 well plate followed by addition of 1 μl of 2 mM DMSO stock containing the test compound (final compound concentration 30 μM). The plate was preincubated for ˜10 minutes at 30° C. and the reaction initiated by addition of 10 μl of enzyme (final concentration 25 nM). Rates of reaction were obtained using a BioRad Ultramark plate reader (Hercules, Calif.) over a 5 minute read time at 30° C. Compounds showing >50% inhibition versus standard wells containing DMSO, but no compound, were titrated and IC50's determined using a similar protocol.

JNK3, sequence (P53779 whole entry, species assumed): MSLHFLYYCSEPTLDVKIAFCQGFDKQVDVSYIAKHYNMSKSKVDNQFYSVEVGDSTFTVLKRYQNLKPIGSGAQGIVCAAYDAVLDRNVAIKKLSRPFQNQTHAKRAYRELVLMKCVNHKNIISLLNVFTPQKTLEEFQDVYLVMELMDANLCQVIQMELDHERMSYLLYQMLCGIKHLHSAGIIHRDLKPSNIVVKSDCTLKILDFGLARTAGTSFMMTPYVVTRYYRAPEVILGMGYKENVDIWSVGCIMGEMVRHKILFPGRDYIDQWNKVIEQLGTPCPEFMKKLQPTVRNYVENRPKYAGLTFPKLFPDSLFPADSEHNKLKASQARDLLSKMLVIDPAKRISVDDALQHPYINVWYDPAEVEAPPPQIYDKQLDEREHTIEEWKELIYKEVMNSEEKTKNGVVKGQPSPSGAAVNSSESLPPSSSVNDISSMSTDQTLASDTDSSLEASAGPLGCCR

Consider `CN1C(=O)COc2ccc(-c3ccnc(Nc4ccccc4)n3)cc21` [IVa-1], for which the negative logarithm of the Ki (pKi) in assay [1] and in assay [2] was greater than 6.00 in each case.

With `CN1C(=O)COc2ccc(-c3ccnc(Nc4cccc(F)c4)n3)cc21` [IVa-2], the pKi (usually the Ki on a negative log10 scale, so that one unit is a factor of ten) in assay [1] was greater than 5.30; in assay [2] it was greater than 6.00.

On to `Cc1cccc(Nc2nccc(-c3ccc4c(c3)N(C)C(=O)CO4)n2)c1` [IVa-3], for which the pKi in assay [1] and in assay [2] was greater than 6.00 each time.

Consider `Cc1ccc(Nc2nccc(-c3ccc4c(c3)N(C)C(=O)CO4)n2)cc1` [IVa-4], for which the negative-log Ki (pKi) in assay [1] was greater than 5.30; in assay [2], greater than 6.00.

Take `COc1ccc(Nc2nccc(-c3ccc4c(c3)N(C)C(=O)CO4)n2)cc1` [IVa-5]: the pKi was greater than 5.30 in assay [1] and greater than 6.00 in assay [2].

Take `Cc1cc(C)cc(Nc2nccc(-c3ccc4c(c3)N(C)C(=O)CO4)n2)c1` [IVa-6]: in assay [1], the pKi is greater than 6.00.

In assay [1], `COc1cc(Nc2nccc(-c3ccc4c(c3)N(C)C(=O)CO4)n2)cc(OC)c1` [IVa-7] had a negative-log Ki (pKi) greater than 6.00.

As to `O=C1COc2ccc(-c3ccnc(Nc4cccc(F)c4)n3)cc2N1` [IVa-10], the negative-log Ki (pKi) in assay [1] is greater than 5.30.

`O=C1COc2ccc(-c3ccnc(Nc4ccc(F)cc4)n3)cc2N1` [IVa-11] had a pKi in assay [1] greater than 5.30.

As to `O=C1COc2ccc(-c3ccnc(Nc4ccc(Cl)cc4)n3)cc2N1` [IVa-13], the pKi in assay [1] is greater than 5.30.

`COc1cccc(Nc2nccc(-c3ccc4c(c3)NC(=O)CO4)n2)c1` [IVa-14] gave a pKi in assay [1] greater than 6.00.

In turn, `Cc1ccccc1Nc1nccc(-c2ccc3c(c2)NC(=O)CO3)n1` [IVa-15] had a pKi in assay [1] greater than 6.00.

Turning to `NS(=O)(=O)c1cccc(Nc2nccc(-c3ccc4c(c3)NC(=O)CO4)n2)c1` [IVa-21], the negative logarithm of the Ki (pKi) in assay [1] is greater than 6.00.

`CN1C(=O)COc2ccc(-c3ccnc(Nc4cccc(S(N)(=O)=O)c4)n3)cc21` [IVa-22]: the pKi in assay [3], in assay [1] and in assay [2] was greater than 6.00 in each case.

In assay [1], `CN1C(=O)COc2ccc(-c3ccnc(Nc4cccc(C(N)=O)c4)n3)cc21` [IVa-25] gave a pKi greater than 6.00.

For `CN1C(=O)COc2ccc(-c3ccnc(Nc4cccc(C#N)c4)n3)cc21` [IVa-26], the pKi in assay [1] is greater than 5.30.

Turning to `CN1C(=O)COc2ccc(-c3ccnc(Nc4cccc(O)c4)n3)cc21` [IVa-27], the pKi in assay [1] is greater than 6.00.

Turning to `COc1cccc(Nc2nccc(-c3ccc4c(c3)N(C)C(=O)CO4)n2)c1` [IVa-28], the negative-log Ki (pKi) in assay [1] was greater than 6.00.

`O=C1COc2ccc(-c3ccnc(Nc4ccccc4)n3)cc2N1CCN1CCOCC1` [IVa-29]: the negative logarithm of the Ki (pKi) in assay [1] was greater than 5.30.

For `O=C1COc2ccc(-c3ccnc(Nc4cccc(F)c4)n3)cc2N1CCN1CCOCC1` [IVa-30], the pKi in assay [1] is greater than 5.30.

`O=C1COc2ccc(-c3ccnc(Nc4cccc(Cl)c4)n3)cc2N1CCN1CCOCC1` [IVa-31]: the pKi in assay [1] was greater than 5.30.

Take `O=C1COc2ccc(-c3ccnc(Nc4cccc(O)c4)n3)cc2N1CCN1CCOCC1` [IVa-32]: the pKi in assay [1] was greater than 5.30.

`COc1cccc(Nc2nccc(-c3ccc4c(c3)N(CCN3CCOCC3)C(=O)CO4)n2)c1` [IVa-36] had a pKi in assay [1] greater than 5.30.

In turn, `NS(=O)(=O)c1ccc(Nc2nccc(-c3ccc4c(c3)N(CCN3CCOCC3)C(=O)CO4)n2)cc1` [IVa-39] gave a negative-log Ki (pKi) in assay [1] greater than 5.30.

As to `O=C1COc2ccc(-c3ccnc(Nc4ccccc4)n3)cc2N1Cc1cccnc1` [IVa-41], in assay [1], the pKi is greater than 5.30.

For `O=C1COc2ccc(-c3ccnc(Nc4cccc(Cl)c4)n3)cc2N1Cc1cccnc1` [IVa-43], the pKi in assay [1] is greater than 5.30.

Take `O=C1COc2ccc(-c3ccnc(Nc4cccc(O)c4)n3)cc2N1Cc1cccnc1` [IVa-44]: in assay [1], the negative logarithm of the Ki (pKi) was greater than 6.00.

Consider `COc1cccc(Nc2nccc(-c3ccc4c(c3)N(Cc3cccnc3)C(=O)CO4)n2)c1` [IVa-45], for which, in assay [1], the pKi was greater than 5.30.

In the case of `COC(=O)c1cccc(Nc2nccc(-c3ccc4c(c3)N(Cc3cccnc3)C(=O)CO4)n2)c1` [IVa-46], the negative logarithm of the Ki (pKi) in assay [1] is greater than 5.30.

In assay [1], `N#Cc1cccc(Nc2nccc(-c3ccc4c(c3)N(Cc3cccnc3)C(=O)CO4)n2)c1` [IVa-47] gave a pKi greater than 5.30.

In assay [1], `O=C1COc2ccc(-c3ccnc(Nc4cccc(-c5ccccc5)c4)n3)cc2N1Cc1cccnc1` [IVa-48] showed a pKi greater than 5.30.

In assay [1], `NS(=O)(=O)c1cccc(Nc2nccc(-c3ccc4c(c3)N(Cc3cccnc3)C(=O)CO4)n2)c1` [IVa-50] showed a pKi greater than 5.30.

For `NS(=O)(=O)c1ccc(Nc2nccc(-c3ccc4c(c3)N(Cc3cccnc3)C(=O)CO4)n2)cc1` [IVa-51], in assay [1], the pKi is greater than 6.00.

With `Cc1cc(C)cc(Nc2nccc(-c3ccc4c(c3)N(Cc3cccnc3)C(=O)CO4)n2)c1` [IVa-52], in assay [1], the pKi is greater than 5.30.

Turning to `NC(=O)c1cccc(Nc2nccc(-c3ccc4c(c3)N(Cc3cccnc3)C(=O)CO4)n2)c1` [IVa-53], the negative-log Ki (pKi) in assay [1] was greater than 6.00.

Regarding `O=C1COc2ccc(-c3ccnc(Nc4cccc(F)c4)n3)cc2N1Cc1ccccn1` [IVa-55], the pKi in assay [1] is greater than 5.30.

The compound `O=C1COc2ccc(-c3ccnc(Nc4cccc(Cl)c4)n3)cc2N1Cc1ccccn1` [IVa-56] gave a pKi in assay [1] greater than 5.30.

For `COc1cccc(Nc2nccc(-c3ccc4c(c3)N(Cc3ccccn3)C(=O)CO4)n2)c1` [IVa-57], in assay [1], the pKi was greater than 6.00.

`COC(=O)c1cccc(Nc2nccc(-c3ccc4c(c3)N(Cc3ccccn3)C(=O)CO4)n2)c1` [IVa-58] gave a negative-log Ki (pKi) in assay [1] greater than 5.30.

Consider `O=C1COc2ccc(-c3ccnc(Nc4cccc(-c5ccccc5)c4)n3)cc2N1Cc1ccccn1` [IVa-59], for which the pKi in assay [1] is greater than 5.30.

The compound `O=C1COc2ccc(-c3ccnc(Nc4cccc(Oc5ccccc5)c4)n3)cc2N1Cc1ccccn1` [IVa-60] showed a pKi in assay [1] greater than 5.30.

In turn, `O=C1COc2ccc(-c3ccnc(Nc4cccc(Cl)c4)n3)cc2N1Cc1ccncc1` [IVa-66] had a pKi in assay [1] greater than 5.30.

In assay [1], `NS(=O)(=O)c1cccc(Nc2nccc(-c3ccc4c(c3)N(Cc3ccncc3)C(=O)CO4)n2)c1` [IVa-70] showed a pKi greater than 5.30.

As to `NS(=O)(=O)c1ccc(Nc2nccc(-c3ccc4c(c3)N(Cc3ccncc3)C(=O)CO4)n2)cc1` [IVa-71], the pKi in assay [1] is greater than 6.00.

In assay [1], `Cc1cc(C)cc(Nc2nccc(-c3ccc4c(c3)N(Cc3ccncc3)C(=O)CO4)n2)c1` [IVa-72] had a pKi greater than 5.30.
